Structures can show the parent of a compound that is named as a salt.
Tests used:
sigma receptor = assay: Sigma receptor binding assay ([3H]DTG, guinea pig brain membrane homogenates); conditions: displacement of [3H]DTG, guinea pig brain membranes
Method: Sigma Receptor Binding Assay
Briefly, frozen whole guinea-pig brains (Biotrol, Indianapolis, Ind.) were homogenized in 10 volumes (w/v) of ice-cold 320 mM sucrose using a Brinkman polytron. The homogenate was centrifuged at 1,000×g for 20 minutes at 4° C. The supernatant was centrifuged at 20,000×g for 20 minutes at 4° C. The resulting pellet was resuspended in 10 initial volumes of 50 mM Tris/HCl buffer at pH 7.4 and centrifuged at 20,000×g for 20 minutes at 4° C. The resulting pellet was resuspended in 5 initial volumes ice-cold 50 mM Tris/HCl (pH 7.4), and the final volume was adjusted to yield a protein concentration of 3 mg/ml. Aliquots of 20-ml were stored at -70° C. until used, with no detectable loss of binding.
The protein concentration in the 1-ml final incubation volume was 800 μg/ml, corresponding to 32 mg of brain tissue (original wet weight) and to a tissue concentration within the linear range for specific binding. […] Incubations were terminated after 90 minutes at room temperature by addition of 4 ml of ice-cold 50 mM Tris/HCl (pH 7.4) and rapid filtration of the membrane suspension through Whatman GF/B glass-fiber filters under vacuum, using a 48-well cell harvester (Brandel). The filters were washed 2 times with 4 ml of 50 mM Tris/HCl (pH 7.4). […] IC50 values were determined by non-linear regression analysis.

PCP receptor = PCP receptor radioligand binding assay ([3H]MK-801, rat brain membranes); conditions: read-out: [3H-MK801] IC50; displacement of [3H]MK-801, rat brain membranes

SMILES | IC50 (sigma receptor) [nM] | IC50 (PCP receptor) [nM]
CCc1cccc(NC(=N)Nc2cccc(Cl)c2)c1 [Compd. No. 3 (Table I)] | 15.5 | 146
CCc1cccc(NC(=N)Nc2cc(C(F)(F)F)ccc2Br)c1 [Compd. No. 4 (Table I), N-(3-Ethylphenyl)-N'-(2-bromo-5-trifluoromethylphenyl)guanidine hydrochloride] | 10.3 | 86.9
CCc1cccc(NC(=N)Nc2cc(C(F)(F)F)ccc2Cl)c1 [Compd. No. 6 (Table I), N-(3-Ethylphenyl)-N'-(2-chloro-5-trifluoromethylphenyl)guanidine hydrochloride] | 14.2 | 57.1
CCc1cccc(NC(=N)Nc2cc(C)ccc2Cl)c1 [Compd. No. 7 (Table I), N-(3-Ethylphenyl)-N'-(2-chloro-5-methylphenyl)guanidine hydrochloride] | 30.6 | 100
CCc1cccc(NC(=N)Nc2cc(CC)ccc2Cl)c1 [Compd. No. 8 (Table I), N-(3-Ethylphenyl)-N'-(2-chloro-5-ethylphenyl)guanidine hydrochloride] | 2.04 | 45.2
CCc1cccc(NC(=N)Nc2cccc(CC)c2)c1 [Compd. No. 9 (Table I)] | 8 | 168
CCc1cccc(N(C)C(=N)Nc2cc(Cl)ccc2Cl)c1 [Compd. No. 10 (Table I), N-(3-ethylphenyl)-N-methyl-N'-(2,5-dichlorophenyl)guanidine hydrochloride] | 28.5 | 84.6
CCc1cccc(N(C)C(=N)Nc2cc(Br)ccc2Br)c1 [Compd. No. 11 (Table I), N-(3-ethylphenyl)-N-methyl-N'-(2,5-dibromophenyl)guanidine hydrochloride] | 40.2 | 47.6
CCc1cccc(N(C)C(=N)Nc2cccc(Cl)c2)c1 [Compd. No. 12 (Table I)] | 43.5 | 646
CCc1cccc(N(C)C(=N)Nc2cc(C(F)(F)F)ccc2Br)c1 [Compd. No. 13 (Table I), N-(3-Ethylphenyl)-N-methyl-N'-(2-bromo-5-trifluoromethylphenyl)guanidine hydrochloride] | 208 | 102
CCc1cccc(N(C)C(=N)Nc2cc(C(F)(F)F)ccc2F)c1 [Compd. No. 14 (Table I), N-(3-Ethylphenyl)-N-methyl-N'-(2-fluoro-5-trifluoromethylphenyl)guanidine hydrochloride] | 85 | 252
CCc1cccc(N(C)C(=N)Nc2cc(C(F)(F)F)ccc2Cl)c1 [Compd. No. 15 (Table I), N-(3-Ethylphenyl)-N-methyl-N'-(2-chloro-5-trifluoromethylphenyl)guanidine hydrochloride] | 120 | 131
CCc1cccc(N(C)C(=N)Nc2cc(CC)ccc2Cl)c1 [Compd. No. 17 (Table I), N-(3-Ethylphenyl)-N-methyl-N'-(2-chloro-5-ethylphenyl)guanidine hydrochloride] | 115 | 53
CCc1cccc(N(C)C(=N)Nc2cccc(Br)c2)c1 [Compd. No. 19 (Table I)] | 40 | 105
CCc1cccc(N(C)C(=N)Nc2cc(CC)ccc2F)c1 [Compd. No. 20 (Table I), N-(3-Ethylphenyl)-N-methyl-N'-(2-fluoro-5-ethylphenyl)guanidine hydrochloride] | 112 | 126
CCc1cccc(NC(=N)Nc2cc(CC)ccc2F)c1 [Compd. No. 21 (Table I), N-(3-Ethylphenyl)-N'-(2-fluoro-5-ethylphenyl)guanidine hydrochloride] | 7.4 | 64.8
CCc1cccc(N(C)C(=N)Nc2cc(CC)ccc2Br)c1 [Compd. No. 22 (Table I), N-(3-Ethylphenyl)-N-methyl-N'-(2-bromo-5-ethylphenyl)guanidine hydrochloride] | 203 | 16.7
CCc1cccc(NC(=N)Nc2cc(CC)ccc2Br)c1 [Compd. No. 23 (Table I), N-(3-Ethylphenyl)-N'-(2-bromo-5-ethylphenyl)guanidine hydrochloride] | 5.07 | 38.3
CCc1cccc(N(C)C(=N)Nc2cc(SC)ccc2Cl)c1 [Compd. No. 24 (Table I), N-13-Ethylphenyl)-N-methyl-N'-(2-chloro-5-methylthiophenyl)guanidine hydrochloride] | 310 | 6.7
CCc1cccc(NC(=N)Nc2cc(SC)ccc2Cl)c1 [Compd. No. 25 (Table I), N-(3-Ethylphenyl)-N'-(2-chloro-5-methylthiophenyl)guanidine hydrochloride] | 15.8 | 15.4
CCc1cccc(N(C)C(=N)N(C)c2cc(Cl)ccc2Cl)c1 [Compd. No. 26 (Table I), N-(3-Ethylphenyl)-N-methyl-N'-(2,5-dichlorophenyl)-N'-methylguanidine hydrochloride] |  | 93.7

SMILES | IC50 (sigma receptor) [nM] | IC50 (PCP receptor) [nM]
CCc1cccc(N(C)C(=N)N(C)c2cc(Br)ccc2Br)c1 [Compd. No. 27 (Table I), N-(3-Ethylphenyl)-N-methyl-N'-(2,5-dibromophenyl)-N'-methylguanidine hydrochloride] | 380 | 35.5
CCc1cccc(N(C)C(=N)N(C)c2cc(CC)ccc2Cl)c1 [Compd. No. 28 (Table I), N-(3-Ethylphenyl)-N-methyl-N'-(2-chloro-5-ethylphenyl)-N'-methylguanidine hydrochloride] |  | 145
CCc1ccc(Cl)c(NC(=N)Nc2cc(C)ccc2Cl)c1 [Compd. No. 29 (Table I)] | 36.1 | 54.7
N=C(Nc1cc(Cl)ccc1Cl)Nc1cccc2ccccc12 [Compd. No. 31 (Table I), N-(1-naphthyl)-N'-(2,5-dichlorophenyl)guanidine] | 25 | 41
N=C(Nc1cc(Br)ccc1Br)Nc1cccc2ccccc12 [Compd. No. 32 (Table I), N-(1-Naphthyl)-N'-(2,5-dibromophenyl)guanidine hydrochloride] | 37.6 | 48.6
Cc1ccc(C)c(NC(=N)Nc2cccc3ccccc23)c1 [Compd. No. 33 (Table I), N-(1-Naphthyl)-N'-(2,5-dimethylphenyl)guanidine hydrochloride] | 27.4 | 79.2
Cc1cccc(NC(=N)Nc2cccc3ccccc23)c1 [Compd. No. 38 (Table I)] | 75 | 192
N=C(Nc1cc(C(F)(F)F)ccc1F)Nc1cccc2ccccc12 [Compd. No. 39 (Table I), N-(1-Naphthyl)-N'-(2-fluoro-5-trifluoromethylphenyl)guanidine hydrochloride] | 79.4 | 38.4
N=C(Nc1cc(C(F)(F)F)ccc1Cl)Nc1cccc2ccccc12 [Compd. No. 40 (Table I), N-(1-Naphthyl)-N'-(2-chloro-5-trifluoromethylphenyl)guanidine hydrochloride] | 52.5 | 38.6
CN(C(=N)Nc1cccc2ccccc12)c1cccc(Br)c1 [Compd. No. 53 (Table I)] |  | 54
CSc1cccc(N(C)C(=N)Nc2cc(SC)ccc2Br)c1 [Compd. No. 63 (Table I), N-(3-Methylthiophenyl)-N-methyl-N'-(2-bromo-5-methylthiophenyl)guanidine] |  | 2.15
CCc1ccc(Br)c(NC(=N)N(C)c2cccc(SC)c2)c1 [Compd. No. 64 (Table I), N-(3-Methylthiophenyl)-N-methyl-N'-(2-bromo-5-ethylphenyl)guanidine hydrochloride] | 180 | 
CSc1cccc(N(C)C(=N)Nc2cc(Br)ccc2Br)c1 [Compd. No. 65 (Table I), N-(3-Methylthiophenyl)-N-methyl-N'-(2,5-dibromophenyl)guanidine hydrochloride] |  | 5.38
CN(C(=N)Nc1cc(Cl)ccc1Cl)c1cccc(C(F)(F)F)c1 [Compd. No. 68 (Table I), N-(3-Trifluoromethylphenyl)-N-methyl-N'-(2,5-dichlorophenyl)guanidine hydrochloride] | 110 | 
CSc1ccc(Cl)c(NC(=N)N(C)c2cccc(Br)c2)c1 [Compd. No. 72 (Table I), N-(3-Bromophenyl)-N-methyl-N'-(2-chloro-5-methylthiophenyl)guanidine hydrochloride] |  | 4.65
CN(C(=N)Nc1cc(Br)ccc1Br)c1cccc(OC(F)(F)F)c1 [Compd. No. 73 (Table I), N-(3-Trifluoromethoxyphenyl)-N'-(2,5-dibromophenyl)-N-methylguanidine hydrochloride] |  | 25.6
CCc1ccc(Br)c(NC(=N)N(C)c2cccc(OC(F)(F)F)c2)c1 [Compound 74] |  | 16
CN(C(=N)Nc1cc(Br)ccc1Br)c1cccc(S(C)(=O)=O)c1 [Compound 75] |  | 530
CN(C(=N)Nc1cc(Br)ccc1Br)c1cccc([S+](C)[O-])c1 (stereo not shown) [Compound 76] |  | 322
CSc1ccc(Cl)c(NC(=N)N(C)c2cccc(I)c2)c1 [Compound 77] |  | 2.11
CCc1ccc(Cl)c(NC(=N)Nc2cccc(I)c2)c1 [Compound 78] |  | 13.7

Reference: patent US6153604A, “Therapeutic substituted guanidines” (Cambridge NeuroScience, Inc., priority 1995, dated 2000)
